Test results as given in patent US10195190B2, “Local delivery forms of acriflavine for treating tumors” (The Johns Hopkins University, priority 2015, dated 2019).

How the values were obtained:
9 L gliosarcoma = assay: Survival of F344 rats intracranially implanted with 9 L gliosarcoma; format: in vivo, rat; settings: for median survival: systemic treatment (ACF 5 mg/kg/daily from Day 0 or Day 5; oral temozolomide 50 mg/kg/day Days 5-9)
[1] = test system: 9 L rat gliosarcoma cells; assay: Acriflavine cytotoxicity in vitro, CCK-8 assay, 9 L cells; format: cell-based; settings: 9 L rat glioma cells, 24 h co-incubation, read-out: IC50 concentration, cell viability
Method: (§1) The cytotoxicity of ACF was analyzed in rodent 9 L gliosarcoma (obtained from the Brain Tumor Research Center, University of California at San Francisco) and F98 glioma (a gift from R. Barth, Ohio State University) cell lines as well as in commercial and primary human glioblastoma cell lines, U87 (ATCC) and GB1A, respectively. The cells were plated in 96-well plates at a density of 4×10^3 cells/well, cultured for 24 h and treated with ACF (concentration range of 0.2 μM-25 μM). After co-incubation with ACF in medium for 24 h, cell growth was assessed using a CCK-8 assay (Dojindo, Kumamoto, Japan) according to manufacturers' protocol. Data are shown as mean+/−SEM and the inhibitory concentration 50% (IC50)+95% confidence interval and R^2 are reported.
(§2) The following concentrations of acriflavine: 0.0249 μM, 0.1245 μM, 0.249 μM, 2.5 μM, 25 μM, 50 μM, 500 μM, and 1000 μM were tested. CCK-8 assay was added to the wells, and the optical density was read at 450 nm by a microplate reader.

[2] = test system: glioma cell lines (9 L gliosarcoma, F98 glioma, U87, GB1A); assay: Acriflavine cytotoxicity in vitro, CCK-8 assay, all glioma cell lines tested; format: cell-based, rodent and human; settings: 24 h
Method: as §1, §2

Compound | median survival (9 L gliosarcoma) [days] | IC50 [1] [nM] | inhibition of proliferation [2] | survival benefit compared to the control (9 L gliosarcoma; systemic ACF started on Day 0 or Day 5)
Cn1nnc2c(C(N)=O)ncn2c1=O [temozolomide, Temozolomide] | 28 | – | – | –
3,6-diamino-10-methylacridinium chloride mixed with 3,6-acridinediamine [ACF] | 14 | 1070 | inhibited proliferation in all glioma cell lines tested in a dose-dependent manner | no benefit in survival
